Drawing on patent publication EP0360258B1, “Amino acid quinoline and naphthyridine derivatives” (ABBOTT LABORATORIES, priority 1988, dated 1990), this text covers MIC and solubility for 19 compounds.

One data set relates to Stap. Aureus CMX 553. Put plainly: Second in vitro antibacterial test, MIC (BHIB). As to conditions: Brain Heart Infusion Broth (BHIB). In kind it is cell-based.
For another data set, the system named is Strep. pyogenes EES 61. Put plainly: Second in vitro antibacterial test, MIC (BHIB). In kind it is cell-based.
The next data set concerns Ps.Aeruginosa A5007. Description: Second in vitro antibacterial test, MIC (BHIB). In kind it is cell-based. Particulars: Brain Heart Infusion Broth (BHIB).
For a further data set, the system named is E.Coli Juhl. Description: Second in vitro antibacterial test, MIC (BHIB). In kind it is cell-based. Particulars: Brain Heart Infusion Broth (BHIB).
The mark [1] stands for this setting: Staphylococcus aureus, read-out: MIC.
Where [2] appears, read: Streptococcus pyogenes, EES61, Brain Heart Infusion Broth (BHIB), read-out: MIC.
The mark [3] stands for this setting: Pseudomonas aeruginosa, read-out: MIC.
The mark [4] stands for this setting: Escherichia coli, read-out: MIC.
[5] abbreviates: Brain Heart Infusion Broth (BHIB).

In general, MIC refers to the least concentration at which growth counts as inhibited. As a reminder, the solubility is how much of the substance goes into solution per volume. A high value points to much dissolved substance.

Structures are written as SMILES. Converted amounts (≈) assume the structure as drawn. Counter-ions that a name gives are not always drawn. Like-named read-outs stand apart in the source and are kept apart here. Where only a bound is given, the exact number is not on record here.

Consider `CSCCC(N)C(=O)NC1CCN(c2nc3c(cc2F)c(=O)c(C(=O)O)cn3-c2ccc(F)cc2F)C1` (centres unmarked) [Example 23], for which the MIC in the data set on Stap. Aureus CMX 553 (setting [1]) is 3.12 µg/mL (≈ 5.83 µM); in the data set with Strep. pyogenes EES 61 (setting [2]), 3.12 µg/mL (≈ 5.83 µM); in the data set on Ps.Aeruginosa A5007 (setting [3]), 5 µg/mL (≈ 9.34 µM); in the data set with E.Coli Juhl (setting [4]), 3.12 µg/mL (≈ 5.83 µM).

On to `CC(C)CC(N)C(=O)NC1CCN(c2nc3c(cc2F)c(=O)c(C(=O)O)cn3-c2ccc(F)cc2F)C1` (centres unmarked) [Example 21], for which the solubility in “physchem” (pH 7.4) was 140 µg/mL (≈ 271 µM); in the data set “physchem” (water) it was above 35000 µg/mL. The MIC was determined as 1.56 µg/mL (≈ 3.01 µM) in the data set on Stap. Aureus CMX 553 (setting [1]), 6.2 µg/mL (≈ 12 µM) in the data set on Strep. pyogenes EES 61 (setting [2]), 25 µg/mL (≈ 48.3 µM) with Ps.Aeruginosa A5007 (setting [3]) and 1.56 µg/mL (≈ 3.01 µM) in the data set with E.Coli Juhl (setting [4]).

`O=C(O)c1cn(-c2ccc(F)cc2F)c2nc(N3CCC(NC(=O)C4CCCN4)C3)c(F)cc2c1=O` (centres unmarked) [Example 28]: the MIC stood at 1.56 µg/mL (≈ 3.11 µM) in the data set on Stap. Aureus CMX 553 (setting [1]), 1.56 µg/mL (≈ 3.11 µM) with Strep. pyogenes EES 61 (setting [2]), 12.5 µg/mL (≈ 24.9 µM) in the data set on Ps.Aeruginosa A5007 (setting [3]) and 1.56 µg/mL (≈ 3.11 µM) in the data set on E.Coli Juhl (setting [4]).

For `CCCC(N)C(=O)NC1CCN(c2nc3c(cc2F)c(=O)c(C(=O)O)cn3-c2ccc(F)cc2)C1` (centres unmarked) [Example 26i], the solubility in “physchem” (pH 7.4) was 240 µg/mL (≈ 494 µM); in “physchem” (water), above 9000 µg/mL. Further, the MIC in the data set with Stap. Aureus CMX 553 (setting [1]) stood at 1.56 µg/mL (≈ 3.21 µM); with Strep. pyogenes EES 61 (setting [2]) it was 1.56 µg/mL (≈ 3.21 µM); in the data set with Ps.Aeruginosa A5007 (setting [3]), 6.2 µg/mL (≈ 12.8 µM); with E.Coli Juhl (setting [4]), 0.39 µg/mL (≈ 0.803 µM).

For `N[C@@H](Cc1cnc[nH]1)C(=O)NC1CCN(c2nc3c(cc2F)c(=O)c(C(=O)O)cn3-c2ccc(F)cc2F)C1` (stereo partly drawn) [Example 44c, 7-[3-L-Histidine-Amino-1-Pyrrolidinyl)-1-(2,4-Difluorophenyl)-6-Fluoro-1,4-Dihydro-4-oxo-1,8-Naphthyridine-3-Carboxylic Acid Dihydrochloride], the solubility in “physchem” (pH 7.4) was 300 µg/mL; in the data set “physchem” (water), above 100000 µg/mL. The MIC is 16 µg/mL in the data set with Stap. Aureus CMX 553 (setting [1]), 32 µg/mL in the data set with Strep. pyogenes EES 61 (setting [2]), above 64 µg/mL in the data set on Ps.Aeruginosa A5007 (setting [3]) and 64 µg/mL with E.Coli Juhl (setting [4]).

For the compound `Cl.NCC(=O)N[C@@H](Cc1ccccc1)C(=O)NC1CCN(c2cc3c(cc2F)c(=O)c(C(=O)O)cn3-c2ccc(F)cc2F)C1` (stereo partly drawn) [Example 26jj, 1-(2,4-Difluorophenyl)-6-Fluoro-7-(3-Gly-L-Phe -Amino-1-Pyrrolidinyl)-1,4-Dihydro-4-Oxo-Quinoline-3-Carboxylic Acid Hydrochloride], the MIC in the data set with Stap. Aureus CMX 553 was determined as 16 µg/mL; against Strep. pyogenes EES 61 (setting [5]), 32 µg/mL; in the data set with Ps.Aeruginosa A5007, 64 µg/mL; against E.Coli Juhl, 16 µg/mL.

As to `CCC[C@H](NC(=O)CNC(=O)CN)C(=O)NC1CCN(c2nc3c(cc2F)c(=O)c(C(=O)O)cn3-c2ccc(F)cc2F)C1` (some centres unmarked) [Example 30], the MIC with Stap. Aureus CMX 553 (setting [1]) was 25 µg/mL (≈ 40.5 µM); in the data set on Strep. pyogenes EES 61 (setting [2]), 100 µg/mL (≈ 162 µM); with Ps.Aeruginosa A5007 (setting [3]), above 100 µg/mL; in the data set on E.Coli Juhl (setting [4]), 25 µg/mL (≈ 40.5 µM).

With `CC(N)C(=O)NC1CCN(c2nc3c(cc2F)c(=O)c(C(=O)O)cn3-c2ccc(F)cc2F)C1` (centres unmarked) [Example 17], the solubility in “physchem” (pH 7.4) was 120 µg/mL (≈ 252 µM); in “physchem” (water) it was above 20000 µg/mL. Also, the MIC worked out at 2 µg/mL (≈ 4.21 µM) in the data set on Stap. Aureus CMX 553 (setting [1]), 16 µg/mL (≈ 33.7 µM) with Ps.Aeruginosa A5007 (setting [3]) and 0.5 µg/mL (≈ 1.05 µM) in the data set with E.Coli Juhl (setting [4]).

As for `CCCC(N)C(=O)NC1CCN(c2cc3c(cc2F)c(=O)c(C(=O)O)cn3-c2ccc(F)cc2)C1` (centres unmarked) [Example 26h], the MIC came out at 0.78 µg/mL (≈ 1.61 µM) against Stap. Aureus CMX 553, 1.56 µg/mL (≈ 3.22 µM) against Strep. pyogenes EES 61 (setting [5]), 6.2 µg/mL (≈ 12.8 µM) against Ps.Aeruginosa A5007 and 0.78 µg/mL (≈ 1.61 µM) against E.Coli Juhl.

On to `CCCC(N)C(=O)NC1CCN(c2cc3c(cc2F)c(=O)c(C(=O)O)cn3-c2ccc(F)cc2F)C1` (centres unmarked) [Example 26b], for which the MIC turned out to be 0.39 µg/mL (≈ 0.776 µM) with Stap. Aureus CMX 553, 1.56 µg/mL (≈ 3.1 µM) with Strep. pyogenes EES 61 (setting [5]), 6.2 µg/mL (≈ 12.3 µM) in the data set on Ps.Aeruginosa A5007 and 0.78 µg/mL (≈ 1.55 µM) with E.Coli Juhl.

As to `CCCC(N)C(=O)NC1CCN(c2nc3c(cc2F)c(=O)c(C(=O)O)cn3C2CC2)C1` (centres unmarked) [Example 26p], the figures for the MIC in the data set on Stap. Aureus CMX 553, against Strep. pyogenes EES 61 (setting [5]) and with Ps.Aeruginosa A5007 were 0.39 µg/mL (≈ 0.904 µM), 3.1 µg/mL (≈ 7.18 µM) and 1.56 µg/mL (≈ 3.62 µM), respectively.

Turning to `CCC[C@H](NC(=O)[C@@H](N)CCC)C(=O)NC1CCN(c2nc3c(cc2F)c(=O)c(C(=O)O)cn3-c2ccc(F)cc2F)C1` (stereo partly drawn) [Example 3b, 7-(3-L-Norvaline-L-Norvalineamino-1-pyrrolidinyl)-1-(2,4-difluorophenyl)-6-fluoro-1,4-dihydro-4-oxo-1,8-naphthyridine-3-carboxylic acid hydrochloride], the solubility in “physchem” (pH 7.4) is 680 µg/mL; in “physchem” (water) it was above 40000 µg/mL. Moreover, the minimal inhibitory concentration (MIC) in the data set with Stap. Aureus CMX 553 (setting [1]) turned out to be 12.5 µg/mL; with Strep. pyogenes EES 61 (setting [2]) it was 12.5 µg/mL; in the data set on Ps.Aeruginosa A5007 (setting [3]), 50 µg/mL; with E.Coli Juhl (setting [4]), 25 µg/mL.

Take `NCC(=O)NC1CCN(c2nc3c(cc2F)c(=O)c(C(=O)O)cn3-c2ccc(F)cc2F)C1` (centres unmarked) [Example 7]: the MIC with Stap. Aureus CMX 553 (setting [1]) was 1.56 µg/mL (≈ 3.38 µM); in the data set on Strep. pyogenes EES 61 (setting [2]), 0.78 µg/mL (≈ 1.69 µM); in the data set with Ps.Aeruginosa A5007 (setting [3]) it was 12.5 µg/mL (≈ 27.1 µM); with E.Coli Juhl (setting [4]) it was 0.78 µg/mL (≈ 1.69 µM).

As for `NC(Cc1ccc(O)cc1)C(=O)NC1CCN(c2nc3c(cc2F)c(=O)c(C(=O)O)cn3-c2ccc(F)cc2F)C1` (centres unmarked) [Example 13], the solubility in “physchem” (pH 7.4) is 60 µg/mL (≈ 106 µM); in “physchem” (water), above 90000 µg/mL. The MIC worked out at 12.5 µg/mL (≈ 22 µM) in the data set on Stap. Aureus CMX 553 (setting [1]), 12.5 µg/mL (≈ 22 µM) in the data set with Strep. pyogenes EES 61 (setting [2]), 50 µg/mL (≈ 88.1 µM) in the data set with Ps.Aeruginosa A5007 (setting [3]) and 12.5 µg/mL (≈ 22 µM) in the data set with E.Coli Juhl (setting [4]).

With `CC(N)C(=O)NC(Cc1ccccc1)C(=O)NC1CCN(c2nc3c(cc2F)c(=O)c(C(=O)O)cn3-c2ccc(F)cc2F)C1` (centres unmarked) [Example 11], the solubility was 590 µg/mL (≈ 948 µM) in “physchem” (pH 7.4) and above 20000 µg/mL in the data set “physchem” (water). The MIC was 16 µg/mL (≈ 25.7 µM) in the data set with Stap. Aureus CMX 553 (setting [1]), 128 µg/mL (≈ 206 µM) in the data set on Ps.Aeruginosa A5007 (setting [3]) and 16 µg/mL (≈ 25.7 µM) in the data set with E.Coli Juhl (setting [4]).

Regarding `Cl.Cl.NCCCC[C@H](N)C(=O)NC1CCN(c2nc3c(cc2F)c(=O)c(C(=O)O)cn3-c2ccc(F)cc2F)C1` (some centres unmarked) [Example 46, 7-(3-Lys-amino-1-pyrrolidinyl)-1-(2,4-difluorophenyl)-6-fluoro-1,4-dihydro-4-oxo-1,8-naphthyridine-3-carboxylic acid dihydrochloride], the MIC in the data set with Stap. Aureus CMX 553 was 100 µg/mL; in the data set with Strep. pyogenes EES 61 (setting [5]), 100 µg/mL; in the data set on Ps.Aeruginosa A5007, above 100 µg/mL; in the data set with E.Coli Juhl, 3.12 µg/mL.

For `CCC[C@H](N)C(=O)NC1CCN(c2nc3c(cc2F)c(=O)c(C(=O)O)cn3CC)C1` (some centres unmarked) [Example 26ff], the MIC amounted to 1.56 µg/mL (≈ 3.72 µM) in the data set on Stap. Aureus CMX 553, 6.2 µg/mL (≈ 14.8 µM) in the data set on Strep. pyogenes EES 61 (setting [5]), 12.5 µg/mL (≈ 29.8 µM) against Ps.Aeruginosa A5007 and 1.56 µg/mL (≈ 3.72 µM) with E.Coli Juhl.

Turning to `CC(C)CC(N)C(=O)NC1CCN(c2nc3c(cc2F)c(=O)c(C(=O)O)cn3C2CC2)C1` (centres unmarked) [Example 26o], the MIC stood at 0.39 µg/mL (≈ 0.875 µM) against Stap. Aureus CMX 553, 3.1 µg/mL (≈ 6.96 µM) in the data set with Strep. pyogenes EES 61 (setting [5]), 1.56 µg/mL (≈ 3.5 µM) in the data set on Ps.Aeruginosa A5007 and 0.2 µg/mL (≈ 0.449 µM) in the data set with E.Coli Juhl.

For `CS(=O)(=O)CC[C@H](N)C(=O)NC1CCN(c2nc3c(cc2F)c(=O)c(C(=O)O)cn3-c2ccc(F)cc2F)C1` (stereo partly drawn) [Example 31c, 7-[3-L-Methioninesulfone-Amino-1-Pyrrolidinyl]-1-(2,4-Difluorophenyl)-6-Fluoro-1,4-Dihydro-4-Oxo 1,8-Naphthyridine-3-Carboxylic Acid Hydrochloride], the solubility in “physchem” (pH 7.4) is 30 µg/mL; in the data set “physchem” (water), above 35000 µg/mL. Besides, the MIC in the data set on Stap. Aureus CMX 553 (setting [1]) is 25 µg/mL; in the data set on Strep. pyogenes EES 61 (setting [2]), 25 µg/mL; in the data set with Ps.Aeruginosa A5007 (setting [3]) it was above 100 µg/mL; in the data set on E.Coli Juhl (setting [4]), 12.5 µg/mL.
